The record followed here is patent US20260085091A1, “PEPTIDES THAT SELECTIVELY BIND TO Trop2 AND USE THEREOF” (KYUNGPOOK NATIONAL UNIVERSITY INDUSTRY-ACADEMIC COOPERATION …, priority 2022, published 2026).

The subject of data set [1] is Trop2-expressing KKU-213 cells. In words: Immunofluorescence microscopic analysis of FITC-peptide binding. It is filed as cell-based, human. The procedure: For co-localization assays, cells were reacted with FITC-conjugated peptide at 4° C. for 1 h and fixed with 4% PFA at RT for 10 min. Next, cells were reacted with mouse anti-Trop2 antibody at 4° C. overnight and then with Alexa Fluor 594-labeled anti-mouse IgG antibody (Thermo Fisher Scientific) at RT for 1 h. Cells were counter-stained with DAPI and enclosed with an anti-fade agent. The slides were examined using a confocal microscope.
(§1) To examine the binding of CSTLNVESC (SEQ ID NO: 1) peptide to cells, CSTLNVESC (SEQ ID NO: 1) peptide was tagged with FITC fluorescence dye at the carboxy terminus. […] In contrast, NSSSVDK-FITC control peptide weakly bound to both cell lines. Binding of CSTLNVESC (SEQ ID NO: 1)-FITC peptide, but not NSSSVDK-FITC peptide, to Trop2-expressing KKU-213 cells was also observed by immunofluorescence microscopic analysis (FIG. 5B).

Data set [2] relates to Trop2-overexpressing HEK293T cells. The experiment in a line: FITC-peptide cell binding (FIG. 6A). Format: cell-based, human.
Data set [3] relates to KKU-213 cells. In words: Flow cytometry binding of FITC-labeled peptide. Format: cell-based, human. The procedure:
(§2) A million cells were prepared, fixed with 4% PFA, and blocked with 1% BSA at RT for 30 min. The cells were reacted with mouse anti-Trop2 antibody at RT for 1 h with agitation. Then, cells were reacted with Alexa Fluor 488-labeled anti-mouse IgG antibody at RT for 1 h. For peptide binding, cells were reacted with FITC-labeling peptide at 4° C. for 1 h with agitation. The stained cells were fixed with 4% PFA before analysis with a flow cytometer.
as §1

The test system of data set [4] is Trop2-silenced KKU-213 cells. The experiment in a line: FITC-peptide binding after Trop2 silencing with siRNAs. Particulars: KKU-213 transfected with Trop2 siRNAs for 24 h. Format: cell-based, human. The text has this: To prepare Trop2-overexpressing cells for biopanning, pCMV6-AC-GFP plasmid including human Trop2 gene, tacstd2, (Origene, Rockville, MD, USA) was transfected into HEK293T cells using Lipofectamine 2000 (Thermo Fisher Scientific, Waltham, MA, USA). For Trop2 silencing, KKU-213 cells were transfected with a small-interfering RNA (siRNA) against Trop2 gene (Qiagen, Venlo, Netherlands) or control siRNA (Bioneer, Oakland, CA) using Lipofectamine RNAiMAX (Thermo Fisher Scientific). Two siRNAs, siTrop21 and siTrop22 have been designed specifically to target sequences; 5′-CCCGGGATCGTTTGCAAGTAA-3 (SEQ ID NO: 4)′ and 5′-TTGCGACATTGTGAAGGCTTA-3 (SEQ ID NO: 5)′. The silencing efficiencies were analyzed by Western blots.
For co-localization assays, cells were reacted with FITC-conjugated peptide at 4° C. for 1 h and fixed with 4% PFA at RT for 10 min. […]
To further examine whether the binding of CSTLNVESC (SEQ ID NO: 1)-FITC peptide to the Trop2-overexpressing cells was mediated by Trop2, Trop2 gene expression in KKU-213 cells was silenced using Trop2 siRNAs. Trop2 expression was reduced after transfection with Trop2 siRNAs for 24 h as determined by western blotting (FIG. 5C), immunofluorescence microscopy (FIG. 5D), and flow cytometry (FIG. 5E). […]

For data set [5], the system named is KKU-055 cells. In words: Cell binding affinity assay using the Ligand Tracer. Details: species or system human. The procedure:
To determine the cell binding affinity of CSTLNVESC (SEQ ID NO: 1) peptide, a binding assay using the Ligand Tracer was performed. The machine continuously monitored the CSTLNVESC (SEQ ID NO: 1)-FITC peptide binding to KKU-213 or KKU-055 cells that was dose and time-dependent.

In data set [6] the test system is Trop2-overexpressing MCF7 breast tumor cells. The experiment in a line: FITC-peptide cell binding (FIG. 6B). It is filed as cell-based.
The test system of data set [7] is H460 lung tumor cells. In words: FITC-peptide cell binding (FIG. 6B). Format: cell-based.
Data set [8] has as its system HeLa cervical tumor cells. The experiment in a line: FITC-peptide cell binding (FIG. 6B). It is filed as cell-based.
Data set [9] has as its system KKU-213 subcutaneous tumor. In words: Tumor homing assay (IVIS imaging). Here is the method:
Four-week-old BALB/c female nude mice were purchased from Orient Bio (Seongnam, Republic of Korea). The mice were cared for and maintained in conformance with the Guidelines of the Institutional Animal Care and Use Committee (IACUC) of Kyungpook National University (permission no. 2017-0077). The mice were maintained in specific-pathogen free condition, controlled temperature (22±2° C.), humidity (50±10%), and light/dark cycle (12:12 h). Sterile tablet food, water and bedding were provided ad libitum. The mice were injected subcutaneously with approximately two million KKU-213 cells resuspended in 100 μl DMEM. When the tumor size reached 200 mm^3 after approximately 4 weeks, the mice were intravenously injected with near-infrared Flamma Fluor 675-labeled peptides. After 2 h, the signal was detected using the In Vivo Imaging System (IVIS) (PerkinElmer, Waltham, MA, USA). During the analysis the mice were anesthetized with 2.5% isoflurane in a gas chamber supplied with oxygen flowmeter 0.8 L/min. […] The frozen tissues were prepared for histological examination.
To examine the tumor homing of […] (SEQ ID NO: 1) peptide, the peptide was conjugated with Flamma 675 near-infrared dye and intravenously injected into mice bearing KKU-213 subcutaneous tumor.

A short description of data set [10]: Systemic side effects in treated tumor-bearing mice (body weight, blood markers). Particulars: after treatment, 10 mg/kg intravenous three times per week. It is filed as in vivo. The text has this: (§3) To exploit the use of CSTLNVESC (SEQ ID NO: 1) peptide for targeted cancer therapy, a Trop2-targeted cytotoxic peptide consisting of CSTLNVESC (SEQ ID NO: 1), RRRRRRR (SEQ ID NO: 2) (R7), and KLAKLAKKLAKLAK (SEQ ID NO: 3) (KLA) peptides was synthesized and named CSTLNVESC (SEQ ID NO: 1)-R7-KLA. R7 is a well-known cell-penetrating peptide that enhances the internalization of peptides and proteins into cells. KLA is a cytotoxic peptide that may cause damage to mitochondrial membrane of mammalian cells when introduced into cells and induce cell death. CSTLNVESC (SEQ ID NO: 1)-R7-KLA was intravenously injected into mice bearing KKU-213 tumor (10 mg/kg, three times per week, FIG. 12A). CSTLNVESC (SEQ ID NO: 1)-targeted R7-KLA peptide reduced tumor volume (FIG. 12B) and tumor weight (FIG. 12C) more efficiently than the control peptide-targeted R7-KLA or combined treatment of CSTLNVESC (SEQ ID NO: 1), R7, and KLA.

In data set [11] the test system is KKU-213 tumor. In words: Anti-tumor growth activity in tumor-bearing mice. It is filed as in vivo. Particulars: 10 mg/kg intravenous, three times per week; versus control peptide-targeted R7-KLA or combined CSTLNVESC, R7, and KLA.
Source text: as §3

For data set [12], the system named is KKU-213 cells. The experiment in a line: Transwell migration assay. It is filed as cell-based, human. Particulars: dose-dependent. The procedure: (§4) Serum-starved KKU-213 cells were resuspended with serum-free medium containing peptide and added to the 8.0 μm pore polycarbonate insert of a Transwell chamber (Corning Life Sciences, Tewksbury, MA, USA). For the invasion assay, the membrane was coated with 0.3 μg Matrigel matrix (Corning Life Sciences) at 37° C. for 2 h before use. Serum-containing or serum-free medium was added to the reservoir and reacted at 37° C. overnight. The migrated or invaded cells were fixed and stained with 0.1% crystal violet solution at RT for 10 min. The stained cells were counted under a light microscope.
(§5) Trop2 is involved in EMT and metastasis, and to examine whether CSTLNVESC (SEQ ID NO: 1) peptide affects cell migration and invasion, trans-well chamber assays were performed.

Data set [13] concerns KKU-213 cells. The experiment in a line: Cytotoxicity of peptide in cholangiocarcinoma cell line. It is filed as cell-based, human. Particulars: 24 h, concentration up to 256 μM. The procedure: (§6) To examine whether CSTLNVESC (SEQ ID NO: 1) peptide affects cell survival, KKU-213 and KKU-055 cells were reacted with the peptide for 24 h.
Data set [14] relates to KKU-055 cells. The description is as above. It is filed as cell-based, human. Particulars: 24 h, concentration up to 256 μM. Here is the method: as §6
A short description of data set [15]: Serum stability analysis by HPLC. It is filed as in vitro ADME. Particulars: mouse serum, 37° C., 24 h incubation, declined thereafter. Here is the method: CSTLNVESC (SEQ ID NO: 1) peptide was stable until 16 h and declined thereafter (FIG. 9).
For data set [16], the system named is KKU-213 cells. The experiment in a line: Transwell invasion assay (Matrigel). Format: cell-based, human. Particulars: dose-dependent. The procedure:
as §4, §5

Data set [17] concerns KKU-055 cells. The experiment in a line: Flow cytometry binding of FITC-labeled peptide. It is filed as cell-based, human. The procedure: as §2
To examine the binding of […] (SEQ ID NO: 1) peptide to cells, […] (SEQ ID NO: 1) peptide was tagged with FITC fluorescence dye at the carboxy terminus. […] In contrast, NSSSVDK-FITC control peptide weakly bound to both cell lines. Binding of […] (SEQ ID NO: 1)-FITC peptide, but not NSSSVDK-FITC peptide, to Trop2-expressing KKU-213 cells was also observed by immunofluorescence microscopic analysis (FIG. 5B).

Data set [18] addresses T1, Trop2 (trophoblast antigen 2) expressed on human tumor cell lines (human, UniProt P09758 27-323).
T1 construct: whole, on cells; Endogenous membrane glycoprotein; also called tacstd2; Trop2-positive KKU-213 cells
T1 sequence (looked up): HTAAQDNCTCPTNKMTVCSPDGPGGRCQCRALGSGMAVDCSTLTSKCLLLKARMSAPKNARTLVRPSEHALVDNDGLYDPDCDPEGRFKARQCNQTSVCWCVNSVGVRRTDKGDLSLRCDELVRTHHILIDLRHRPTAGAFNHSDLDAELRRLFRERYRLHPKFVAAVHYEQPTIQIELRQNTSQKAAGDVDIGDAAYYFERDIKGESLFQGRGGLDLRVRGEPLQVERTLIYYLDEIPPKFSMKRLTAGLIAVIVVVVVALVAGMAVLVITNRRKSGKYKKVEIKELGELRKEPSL
In words: Ligand Tracer, real-time binding of FITC-peptide to KKU-213 cells. Here is the method:
To determine the cell binding affinity of […] (SEQ ID NO: 1) peptide, a binding assay using the Ligand Tracer was performed.

Primed or numbered codes have the meaning given here. Ends that are not written are not given here. FITC′ = not defined here

“CSTLNVESC (SEQ ID NO: 1)-FITC (CSTLNVESC-{FITC′}; cysteine pairing not given here) [… peptide tagged with FITC fluorescence dye at the carboxy terminus]”: the “binding to cells (immunofluorescence microscopy)” value in data set [1] was “observed”. Moreover, the binding to cells result in data set [2], in data set [6], in data set [7] and in data set [8] was “selectively bound” in each case. Besides, the “binding to cells (flow cytometry)” value in [3] is listed as “bound to KKU-213 cells at higher levels than to KKU-055 cells”. For the same molecule, the “binding to Trop2-silenced cells” value in [4] was “reduced”. Further, the “binding (Ligand Tracer)” value in data set [5] is recorded as “hardly detected”.

In the case of “CSTLNVESC (SEQ ID NO: 1)-Flamma 675: CSTLNVESC peptide conjugated with Flamma 675 near-infrared dye (cysteine pairing not given here; also: conjugated with Flamma 675 near-infrared dye, site not given here)”, in [9] (mouse, in vivo), the “accumulation in tumor, ex vivo imaging and average photons in isolated organs” value is given as “accumulation”; the “average photons in tumor” value is reported as “higher than those of the control peptide”. Further, in [9] (mouse, in vivo, iv), the “tumor homing, whole-body imaging” value is recorded as “homed to tumor more efficiently than the control peptide”.

Turning to “CSTLNVESC (SEQ ID NO: 1)-R7-KLA: Trop2-targeted cytotoxic peptide consisting of CSTLNVESC, RRRRRRR (R7), and KLAKLAKKLAKLAK (KLA) peptides (CSTLNVESCRRRRRRRKLAKLAKKLAKLAK)”, in [10], the “level of kidney function marker BUN” value is reported as “within normal ranges”, the “level of kidney function marker creatinine” value was “within normal ranges”, the “level of liver function enzyme ALP” value is reported as “within normal ranges” and the “level of liver function enzyme ALT” value is “within normal ranges”. For the same molecule, in data set [10], the “level of liver function enzyme AST” value is on record as “within normal ranges”. In addition, in [11], the tumor volume result is “reduced” and the tumor weight result is recorded as “reduced”.

For the molecule CSTLNVESC [CSTLNVESC (SEQ ID NO: 1)], the serum-induced migration entry in data set [12] is on record as “inhibited”. Further, the “accumulation and co-localization with Trop2 in tumor tissues (immunofluorescence)” value in data set [9] (anti-Trop2 antibody staining of tumor tissue) is “accumulated and co-localized with Trop2 in tumor tissues”. In addition, the “average photons in other organs, versus control peptide” value in [9] (isolated organs except kidney) is on record as “similar”. Also, the cytotoxicity entry in [13] and in data set [14] was “No cytotoxicity” throughout. Also, in data set [15], the “time until which peptide was stable in serum” value worked out at 16 h. In addition, in data set [16], the serum-induced invasion entry is recorded as “inhibited”.

Take “NSSSVDK-FITC: FITC-labeled NSSSVDK control peptide (also: FITC label, site not given here) [reference compound]”: the “binding to cells (flow cytometry)” value in data set [3] and in data set [17] was “weakly bound” each time.

B1: CSTLNVESC (SEQ ID NO: 1)-FITC peptide (peptide)
peptide: CSTLNVESC-{FITC′}
modifications: cysteine pairing not given here
notes: Synthetic peptide (Fmoc), from a CX7C T7 phage library; also called FITC-conjugated peptide
In data set [18], B1 registered a Kd of 5.21 µM.
